The results in this text go back to patent US8981111B2 (priority 2008, dated 2015).

Structures are written as SMILES.

The data set is described as follows: log P (HPLC/MS data of the preparation examples). The following applies: linear gradient 10% to 95% acetonitrile.
Setting [1] is: LC-MS, method [b]: pH 2.7 with 0.1% formic acid in water and acetonitrile.
Setting [2] is: method [b]: LC-MS at pH 2.7, 0.1% formic acid in water / acetonitrile.

Consider `CC(C)CC(=O)Nc1ccnc(CON=C(c2ccccc2)c2cnnn2C)n1` [Example 82], for which the log p under setting [1] is 2.77^[b]. The same measure, in the same setting: in the case of `Cn1nncc1C(=NOCc1csc(NC(=O)C(C)(C)C)n1)c1ccccc1` [Example 83] it was 3.06^[b]; in that of `CCCCCOC(=O)Nc1nc(CON=C(c2ccccc2)c2cnnn2C)cs1` [Example 84], 3.76^[b]. Same read-out and setting: for `CCCCCC(=O)Nc1nc(CON=C(c2ccccc2)c2cnnn2C)cs1` [Example 85] the value was 3.44^[b].

As for `CC(C)CC(=O)Nc1nc(CON=C(c2ccccc2)c2cnnn2C)cs1` [Example 86], the log p under setting [1] is 3^[b]. On to `CCCCCOC(=O)Nc1ccnc(CON=C(c2ccccc2)c2cnnn2C)n1` [Example 87], for which, under setting [1], the log p is 3.55^[b].

In the case of `CCCCCCOC(=O)Nc1cccc(CON=C(c2ccccc2)c2ncnn2C)n1` [Example 88], under setting [1], the log p is 4.36^[b].

Take `CCCOC(=O)Nc1cccc(CON=C(c2ccccc2)c2ncnn2C)n1` [Example 89]: the log p under setting [1] is 3.15^[b]. Consider `Cn1cncc1C(=NOCc1cccc(N2C(=O)c3ccccc3C2=O)n1)c1ccccc1` [Example 90], for which the log p under setting [1] is 1.81^[b]. As for `CCCCOC(=O)Nc1cccc(CON=C(c2ccccc2)c2ncnn2C)n1` [Example 91], the log p under setting [1] was 3.53^[b]. For the compound `Cn1ncnc1C(=NOCc1cccc(NC(=O)OCCCCCl)n1)c1ccccc1` [Example 92], under setting [1], the log p is 3.39^[b]. Same read-out and setting: in the case of `CCOC(=O)Nc1cccc(CON=C(c2ccccc2)c2ncnn2C)n1` [Example 93] it was 2.71^[b]; in that of `C#CCCOC(=O)Nc1cccc(CON=C(c2ccccc2)c2ncnn2C)n1` [Example 94], 2.82^[b]; in that of `Cn1cncc1C(=NOCc1nccc(N)n1)c1ccccc1` [Example 95], 0.01^[b].

In the case of `CC(C)CC(=O)Nc1nc(CON=C(c2ccccc2)c2ncnn2C)cs1` [Example 96], the log p under setting [1] is 2.88^[b]. The same measure, in the same setting: in the case of `Cn1cncc1C(=NOCc1nccc(NC(=O)C(C)(C)C)n1)c1ccccc1` [Example 99] it was 1.76^[b]; in that of `Cn1ncnc1C(=NOCc1csc(NC(=O)C(C)(C)C)n1)c1ccccc1` [Example 101], 2.92^[b].

Turning to `Cn1c(C(=NOCc2nccc(NC(=O)C(C)(C)C)n2)c2ccccc2)cnc1C(=O)C(C)(C)C` [Example 102], the log p under setting [1] was 4.84^[b]. The same measure, in the same setting: in the case of `CC(C)C=C(OC(=O)CC(C)C)c1ncc(C(=NOCc2nccc(NC(=O)CC(C)C)n2)c2ccccc2)n1C` [Example 103] it was 4.04^[b]; in that of `Cn1cncc1C(=NOCc1nccc(N(C(=O)C2CC2)C(=O)C2CC2)n1)c1ccccc1` [Example 104], 1.75^[b]. Turning to `CCCCCCCOC(=O)Nc1cccc(CON=C(c2ccccc2)c2ncnn2C)n1` [Example 106], the log p under setting [1] is 4.86^[b]. On to `Cn1ncnc1C(=NOCc1cccc(NC(=O)CCc2ccccc2)n1)c1ccccc1` [Example 107], for which the log p under setting [1] was 3.33^[b]. In the case of `CC(C)C(=O)Nc1ccnc(CON=C(c2ccccc2)c2cnc(C(=O)C(C)C)n2C)n1` [Example 109], under setting [1], the log p was 3.62^[b]. The same measure, in the same setting: in the case of `CC(C)=C(OC(=O)C(C)C)c1ncc(C(=NOCc2nccc(NC(=O)C(C)C)n2)c2ccccc2)n1C` [Example 110] it was 2.77^[b].

`Cn1cncc1C(=NOCc1csc(N)n1)c1ccccc1` [Example 111]: the log p under setting [1] is 0.69^[b]. Still for that read-out and setting: in the case of `CC(C)CC(=O)Nc1ccnc(CON=C(c2ccccc2)c2cncn2C)n1` [Example 112] it was 1.99^[b]; in that of `CCCCCOC(=O)N(C)c1cccc(CON=C(c2ccccc2)c2ncnn2C)n1` [Example 113], 4.39^[b].

As to `CCCCCOC(=O)Nc1ccnc(CON=C(c2ccccc2)c2cncn2C)n1` [Example 115], the log p under setting [1] is 2.66^[b]. Consider `CCCCCC(=O)Nc1nc(CON=C(c2ccccc2)c2cncn2C)cs1` [Example 116], for which the log p under setting [1] was 2.08^[b].

Take `Cn1cncc1C(=NOCc1csc(NC(=O)C(C)(C)C)n1)c1ccccc1` [Example 117]: under setting [1], the log p was 1.84^[b].

As for `CC(C)CC(=O)Nc1nc(CON=C(c2ccccc2)c2cncn2C)cs1` [Example 118], the log p under setting [1] is 1.84^[b]. `CC(C)C(=O)Nc1nc(CON=C(c2ccccc2)c2cncn2C)cs1` [Example 119]: the log p under setting [1] was 1.63^[b]. Turning to `CCCCCC(=O)Nc1cccc(CON=C(c2ccccc2)c2cncn2C)n1` [Example 120], under setting [1], the log p was 2.11^[b]. As to `CC(C)CC(=O)Nc1cccc(CON=C(c2ccccc2)c2cncn2C)n1` [Example 121], under setting [1], the log p is 1.84^[b]. `CC(C)C(=O)Nc1ccnc(CON=C(c2ccccc2)c2cncn2C)n1` [Example 124]: the log p under setting [1] is 1.49^[b].

Take `CC(C)C(=O)Nc1cccc(CON=C(c2ccccc2)c2cncn2C)n1` [Example 125]: under setting [1], the log p is 1.63^[b]. Same read-out and setting: in the case of `Cn1cncc1C(=NOCc1csc(NC(=O)COc2ccccc2)n1)c1ccccc1` [Example 127] it was 2.01^[b]; in that of `CCCCC(=O)Nc1ccnc(CON=C(c2ccccc2)c2cncn2C)n1` [Example 128], 1.75^[b].

Turning to `CCCC(=O)Nc1ccnc(CON=C(c2ccccc2)c2cncn2C)n1` [Example 129], the log p under setting [1] is 1.5^[b]. Consider `CCCCCCC(=O)Nc1ccnc(CON=C(c2ccccc2)c2cncn2C)n1` [Example 130], for which, under setting [1], the log p is 2.2^[b]. Take `CCCCCCCCCC(=O)Nc1ccnc(CON=C(c2ccccc2)c2cncn2C)n1` [Example 131]: under setting [1], the log p was 2.98^[b]. On the same count and under the same terms, for `Cn1cncc1C(=NOCc1nccc(NC(=O)COc2ccccc2)n1)c1ccccc1` [Example 132] the value was 1.86^[b]; for `Cn1ccnc1C(=NOCc1csc(N)n1)c1ccccc1` [Example 133], 0.75^[b]; for `Cn1ncnc1C(=NOCc1cccc(CNC(=O)CCc2ccccc2)n1)c1ccccc1` [Example 134], 2.56^[b]. On to `CCCCC(=O)NCc1cccc(CON=C(c2ccccc2)c2ncnn2C)n1` [Example 135], for which the log p under setting [1] was 2.28^[b]. The same measure, in the same setting: in the case of `CC(C)CC(=O)NCc1cccc(CON=C(c2ccccc2)c2ncnn2C)n1` [Example 136] it was 2.23^[b]; in that of `Cn1ncnc1C(=NOCc1cccc(CNC(=O)C(C)(C)C)n1)c1ccccc1` [Example 137], 2.28^[b]. As to `Cn1ncnc1C(=NOCc1cccc(CNC(=O)Cc2ccccc2)n1)c1ccccc1` [Example 138], under setting [2], the log p is 2.44^[b].

On to `CCCCCC(=O)NCc1cccc(CON=C(c2ccccc2)c2ncnn2C)n1` [Example 140], for which the log p under setting [2] is 2.62^[b]. Turning to `CCCCOC(=O)NCc1cccc(CON=C(c2ccccc2)c2ncnn2C)n1` [Example 141], under setting [2], the log p is 2.84^[b].

For the compound `Cn1nc(C(=NOCc2cccc(N3C(=O)c4ccccc4C3=O)n2)c2ccccc2)n(C)c1=O` [Example 142], under setting [2], the log p was 2.66^[b]. The same measure, in the same setting: in the case of `Cn1cnnc1C(=NOCc1cccc(N2C(=O)c3ccccc3C2=O)n1)c1ccccc1` [Example 144] it was 2.3^[b]. Take `CCCCCOC(=O)Nc1cccc(CON=C(c2ccccc2)c2nn(C)c(=O)n2C)n1` [Example 146]: under setting [2], the log p is 3.8^[b]. With `Cn1nc(C(=NOCc2cccc(NC(=O)C(C)(C)C)n2)c2ccccc2)n(C)c1=O` [Example 147], the log p under setting [2] is 2.86^[b].
